# Source: EP4667458A1 (Kanaph Therapeutics Inc., priority 2023, dated 2024)
# pIC50: −log10 of the molar value.
# Target: T1, SOS1 (Homo sapiens, UniProt Q07889)
# T1 construct: adding equal amounts of HIS-SOS1cat (160 nM; Cytoskeleton, US); His; purchased Cytoskeleton, US
# T1 sequence (Q07889 564-1049 limits assumed): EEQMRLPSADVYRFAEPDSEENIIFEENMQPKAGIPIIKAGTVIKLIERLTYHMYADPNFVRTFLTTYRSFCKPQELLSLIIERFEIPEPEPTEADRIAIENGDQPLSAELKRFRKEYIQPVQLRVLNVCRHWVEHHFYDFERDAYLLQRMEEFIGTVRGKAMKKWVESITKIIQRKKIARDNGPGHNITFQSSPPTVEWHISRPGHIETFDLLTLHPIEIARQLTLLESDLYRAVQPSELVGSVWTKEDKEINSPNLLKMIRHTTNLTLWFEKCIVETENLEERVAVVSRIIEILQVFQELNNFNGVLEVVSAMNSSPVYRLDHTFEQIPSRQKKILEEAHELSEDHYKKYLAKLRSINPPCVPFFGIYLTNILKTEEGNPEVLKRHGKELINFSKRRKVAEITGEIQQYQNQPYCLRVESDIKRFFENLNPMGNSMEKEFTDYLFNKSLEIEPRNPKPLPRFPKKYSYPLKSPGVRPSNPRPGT
# Experiment: SOS-catalyzed nucleotide exchange assay (HTRF, SOS1-mediated GTP loading of KRAS G12D)
# Type: biochemical
# Details: GST-KRAS G12D, HIS-SOS1cat, EDA-GTP-DY-647P1; compound 128 pM to 10 µM; read-out: SOS-catalyzed nucleotide exchange assay (IC50 range, Grade)
# Method: SOS1 activity was measured by SOS1-mediated GTP loading quantification of KRAS^G12D. GTP-loaded KRAS^G12D was detected by HTRF (Homogeneous Time Resolved Fluorescence) using anti-GST terbium (Cisbio, France) as a donor and a fluorescence GTP analogue (EDA-GTP-DY-647P1, [DY-647P1-labeled 2'/3'-O-(2-aminoethyl-carbamoyl)guanosine-5'-triphosphate (Jena bioscience, Germany)]) as an acceptor.
# Assay buffer was composed of 10 mM HEPES pH 7.4, 150 mM NaCl, 5 mM MgCl2, 1 mM DTT, 0.05% BSA Fraction V pH 7.0 (Sigma) and 0.0025% (v/v) Igepal (Sigma). KRAS^G12D working solution was prepared by adding equal amounts of GST-KRAS^G12D (100 nM) and anti-GST-terbium (2 nM; Cisbio, France) to the assay buffer and incubating on ice for 10 minutes. SOS1cat working solution was prepared by adding equal amounts of HIS-SOS1cat (160 nM; Cytoskeleton, US) and EDA-GTP-DY-647P1 (200 nM; Jena bioscience, Germany) to the assay buffer. Control solution was prepared by adding equal volumes of EDA-GTP-DY-647P1 and the assay buffer for normalization control to exclude GEF-independent GTP loading and background signals. In order to induce a reaction, 5 µL of the SOS1cat working solution or the control solution was injected into each well. 5 µL of a compound having various concentrations from 128 pM to 10 µM was added to wells containing the SOS1cat working solution and incubated at room temperature for 10 minutes to bind to SOS1.
# 10 µL of the KRAS^G12D solution was added to each well and incubated for 30 minutes at room temperature while shaking. HTRF was measured using a Thermo Varioskan (excitation 334 nm, emission 665 nm). The IC50 of each inhibitor was analyzed using Graphad Prism.
# The SOS1 inhibitory activity of the Example compounds measured by the above method was evaluated based on the following criteria, and the results are shown in Table 29.
row,Molecule,pIC50
1,"C[C@@H](NC(=O)c1ccc(=O)n(C2=CCCCC2)n1)c1cc(N)cc(C(F)(F)F)c1 [Example 65, N-[(1R)-1-[3-amino-5-(trifluoromethyl)phenyl]ethyl]-1-(cyclohex-1-en-1-yl)-6-oxo-1,6-dihydropyridazine-3-carboxamide]",> 6.00
2,"1-(1-acetylpiperidin-4-yl)-N-[(1R)-1-[3-amino-5-(trifluoromethyl)phenyl]ethyl]-6-oxo-1,6-dihydropyridazine-3-carboxamide [Example 118]",5.00 to 6.00
3,"C[C@@H](NC(=O)c1ccc(=O)n(-c2ccccc2OC(F)(F)F)n1)c1cc(N)cc(C(F)(F)F)c1 [Example 45, N-[(1R)-1-[3-amino-5-(trifluoromethyl)phenyl]ethyl]-6-oxo-1-[2-(trifluoromethoxy)phenyl]pyridazine-3-carboxamide]",> 6.00
4,"C[C@@H](NC(=O)c1ccc(=O)n(-c2ccncc2)c1)c1cc(N)cc(C(F)(F)F)c1 [Example 73, N-[(1R)-1-[3-amino-5-(trifluoromethyl)phenyl]ethyl]-2-oxo-2H-[1,4'-bipyridine]-5-carboxamide]",> 6.00
5,"COc1ccc(-n2nc(C(=O)N[C@H](C)c3cccc(C(F)(F)CO)c3F)ccc2=O)cc1 [Example 42, (R)-N-(1-(3-(1,1-difluoro-2-hydroxyethyl)-2-fluorophenyl)ethyl)-1-(4-methoxyphenyl)-6-oxo-1,6-dihydropyridazine-3-carboxamide]",> 6.00
6,"Cc1cc(-n2nc(C(=O)N[C@H](C)c3cc(N)cc(C(F)(F)F)c3)ccc2=O)cs1 [Example 27, (R)-N-(1-(3-amino-5-(trifluoromethyl)phenyl)ethyl)-1-(5-methylthiophen-3-yl)-6-oxo-1,6-dihydropyridazine-3-carboxamide]",> 6.00
7,"C[C@@H](NC(=O)c1nn(-c2ccccc2)c(=O)cc1C1CC1)c1cc(N)cc(C(F)(F)F)c1 [Example 55, (R)-N-(1-(3-amino-5-(trifluoromethyl)phenyl)ethyl)-4-cyclopropyl-6-oxo-1-phenyl-1,6-dihydropyridazine-3-carboxamide]",> 6.00
8,"C[C@@H](NC(=O)c1ccc(=O)n(C2CCS(=O)(=O)CC2)n1)c1cc(N)cc(C(F)(F)F)c1 [Example 117, N-[(1R)-1-[3-amino-5-(trifluoromethyl)phenyl]ethyl]-1-(1,1-dioxo-1λ^6-thian-4-yl)-6-oxo-1,6-dihydropyridazine-3-carboxamide]",5.00 to 6.00
9,"CNCc1ccc(Cl)cc1-c1cnc([C@@H](C)NC(=O)c2ccc(=O)n(-c3ccccc3F)c2)s1 [Example 138, N-[(1R)-1-[5-[5-chloro-2-(methylaminomethyl)phenyl]thiazol-2-yl]ethyl]-1-(2-fluorophenyl)-6-oxo-pyridine-3-carboxamide]",> 6.00
10,"C[C@@H](NC(=O)c1ccc(=O)n(-c2ccccc2)n1)c1cccc(S(C)(=O)=O)c1 [Example 11, N-[(1R)-1-(3-methylsulfonylphenyl)ethyl]-6-oxo-1-phenyl-pyridazine-3-carboxamide]",5.00 to 6.00
11,"COC1CC=C(n2nc(C(=O)N[C@H](C)c3cc(N)cc(C(F)(F)F)c3)ccc2=O)CC1 (stereo partly drawn) [Example 127, N-[(1R)-1-[3-amino-5-(trifluoromethyl)phenyl]ethyl]-1-(4-methoxycyclohex-1-en-1-yl)-6-oxo-1,6-dihydropyridazine-3-carboxamide]",5.00 to 6.00
12,"C[C@@H](NC(=O)c1ccc(=O)n(-c2ccccc2)n1)c1ccc(S(C)(=O)=O)cc1 [Example 12, N-[(1R)-1-(4-methylsulfonylphenyl)ethyl]-6-oxo-1-phenyl-pyridazine-3-carboxamide]",< 5.00
13,"CC(=O)Nc1cccc(-n2nc(C(=O)N[C@H](C)c3cccc(C(F)(F)CO)c3)ccc2=O)c1 [Example 53, 1-(3-acetamidophenyl)-N-[(1R)-1-[3-(1,1-difluoro-2-hydroxyethyl)phenyl]ethyl]-6-oxo-pyridazine-3-carboxamide]",5.00 to 6.00
14,"C[C@@H](NC(=O)c1ccc(=O)n(-c2ccccc2)n1)c1cc(N)cc(C(F)(F)F)c1 [Example 16, N-[(1R)-1-[3-amino-5-(trifluoromethyl)phenyl]ethyl]-6-oxo-1-phenyl-pyridazine-3-carboxamide]",> 6.00
15,"C[C@@H](NC(=O)c1ccc(=O)n(C2CCN(S(C)(=O)=O)CC2)n1)c1cc(N)cc(C(F)(F)F)c1 [Example 120, N-[(1R)-1-[3-amino-5-(trifluoromethyl)phenyl]ethyl]-1-(1-methanesulfonylpiperidin-4-yl)-6-oxo-1,6-dihydropyridazine-3-carboxamide]",5.00 to 6.00
16,"CC(=O)Nc1ccccc1-n1nc(C(=O)N[C@H](C)c2cc(N)cc(C(F)(F)F)c2)ccc1=O [Example 52, (R)-1-(2-acetamidophenyl)-N-(1-(3-amino-5-(trifluoromethyl)phenyl)ethyl)-6-oxo-1,6-dihydropyridazine-3-carboxamide]",5.00 to 6.00
17,"C[C@@H](NC(=O)c1ccc(=O)n(-c2c(F)cccc2F)c1)c1cc(N)cc(C(F)(F)F)c1 [Example 97, N-[(1R)-1-[3-amino-5-(trifluoromethyl)phenyl]ethyl]-1-(2,6-difluorophenyl)-6-oxo-1,6-dihydropyridine-3-carboxamide]",5.00 to 6.00
18,"C[C@@H](NC(=O)c1ccc(=O)n(-c2cccc(C(=O)N(C)C)c2)n1)c1cccc(C(F)(F)CO)c1F [Example 43, N-[(1R)-1-[3-(1,1-difluoro-2-hydroxy-ethyl)-2-fluorophenyl]ethyl]-1-[3-(dimethylcarbamoyl)phenyl]-6-oxo-pyridazine-3-carboxamide]",> 6.00
19,"COc1cccc(-n2nc(C(=O)N[C@H](C)c3cc(N)cc(C(F)(F)F)c3)ccc2=O)c1 [Example 40, N-[(1R)-1-[3-amino-5-(trifluoromethyl)phenyl]ethyl]-1-(3-methoxyphenyl)-6-oxo-pyridazine-3-carboxamide]",> 6.00
20,"Cc1cc(=O)n(-c2ccccc2)nc1C(=O)N[C@H](C)c1cc(N)cc(C(F)(F)F)c1 [Example 49, N-[(1R)-1-[3-amino-5-(trifluoromethyl)phenyl]ethyl]-4-methyl-6-oxo-1-phenyl-pyridazine-3-carboxamide]",5.00 to 6.00
21,"C[C@@H](NC(=O)c1ccc(=O)n(C23CC(C2)C3)n1)c1cc(N)cc(C(F)(F)F)c1 [Example 70, N-[(1R)-1-[3-amino-5-(trifluoromethyl)phenyl]ethyl]-1-{bicyclo[1.1.1]pentan-1-yl}-6-oxo-1,6-dihydropyridazine-3-carboxamide]",5.00 to 6.00
22,"CCOc1cccc([C@@H](C)NC(=O)c2ccc(=O)n(-c3ccccc3)n2)c1 [Example 60, (R)-N-(1-(3-ethoxyphenyl)ethyl)-6-oxo-1-phenyl-1,6-dihydropyridazine-3-carboxamide]",< 5.00
23,"C[C@@H](NC(=O)c1ccc(=O)n(-c2ccccc2Cl)n1)c1cc(N)cc(C(F)(F)F)c1 [Example 32, (R)-N-(1-(3-amino-5-(trifluoromethyl)phenyl)ethyl)-1-(2-chlorophenyl)-6-oxo-1,6-dihydropyridazine-3-carboxamide]",> 6.00
24,"C[C@@H](NC(=O)c1ccc(=O)n([C@@H]2CCCC[C@H]2O)n1)c1cc(N)cc(C(F)(F)F)c1 [Example 124, N-((R)-1-(3-amino-5-(trifluoromethyl)phenyl)ethyl)-1-((1R,2R)-2-hydroxycyclohexyl)-6-oxo-1,6-dihydropyridazine-3-carboxamide]",5.00 to 6.00
25,"C[C@@H](NC(=O)c1ccc(=O)n(-c2ccccc2F)n1)c1cc(N)cc(C(F)(F)F)c1 [Example 46, (R)-N-(1-(3-amino-5-(trifluoromethyl)phenyl)ethyl)-1-(2-fluorophenyl)-6-oxo-1,6-dihydropyridazine-3-carboxamide]",> 6.00
26,"C[C@@H](NC(=O)c1ccc(=O)n(-c2cccc(F)c2F)c1)c1cc(N)cc(C(F)(F)F)c1 [Example 94, N-[(1R)-1-[3-amino-5-(trifluoromethyl)phenyl]ethyl]-1-(2,3-difluorophenyl)-6-oxo-1,6-dihydropyridine-3-carboxamide]",> 6.00
